According to patent publication US9018242B2, “Salt form of tyrosine kinase inhibitor” (Jiangsu Simcere Pharmaceutical R&D Co., Ltd, priority 2011, dated 2015):
In brackets after ≈: the same amount, converted by molar mass.

Tests used:
[1] = Hygroscopicity measurement (weight gain); format: physicochemical; settings: 25±1° C., relative humidity 80±2%, 24 hours
Description: The method for measuring the hygroscopicity may include: placing a certain amount of a sample to be tested into a precisely weighed glass weighing bottle (m1) with a plug and precisely weighing (m2); placing the opened weighing bottle into a thermostatic dryer (with saturated ammonium sulfate solution placed at the bottom, with a relative humidity of 80±2%) at 25±1° C. for 24 hours; covering the weighing bottle with the plug and precisely weighing (m3), and calculating the percent of weight gain of the sample to be tested according to the following equation: […]
The measurement method includes: placing a certain amount of sample to be tested into a precisely weighed glass weighing bottle (m1) with a plug and precisely weighing (m2); placing the opened weighing bottle in a thermostated dryer (with saturated ammonium sulfate solution placed at the bottom, with a relative humidity of 80±2%) at 25±1° C. for 24 hours; covering the weighing bottle with the plug and precisely weighing (m3).
Characterization of the hygroscopicity and definition of the hygroscopic weight gain:
Deliquescence: sufficient moisture was absorbed to form liquid;
Slight hygroscopicity: hygroscopic weight gain was less than 2% and not less than 0.2%: […]

[2] = Solubility in water by HPLC; format: physicochemical; settings: thermodynamic from solid; purified water, 25° C.
Description: Liquid chromatograph: Agilent 1200 HPLC system (diode array detector), ChemStation
Mobile phase: acetonitrile/water
Detection wavelength: 264 nm
About 100 mg sample to be tested was precisely weighed and placed into a 100 ml graduated flask at 25° C.; an appropriate amount of solvent [acetonitrile/water (80:20)] was added to dissolve the sample under ultrasonic sound, and the solution was diluted to a given scale and shaken up; 10 μl resulting solution was precisely measured and loaded into the liquid chromatograph, the chromatogram was recorded, and the peak area Scontrol was measured.
10 ml purified water was measured and placed into a 25 ml Kjeldahl flask. The sample to be tested was gradually added at 25° C. until an insoluble solid appeared in the solution. The solution was treated under ultrasonic sound for 30 min and the insoluble solid was filtered off. 10 μl filtrate was precisely weighed and loaded into the liquid chromatograph, the chromatogram was recorded, and the peak area Stest was measured.

[3] = Plasma exposure (AUC) in rats after gavage administration; format: in vivo; settings: rat, po, male SD rats, 10 mg/kg (based on pharmaceutically active compound), salts dissolved in pure water, active compound as suspension in 0.5% CMC, up to 24 h
Description: Laboratory animal: male SD rats
Dosage: 10 mg/kg (based on pharmaceutically active compound)
Formulation for salts: dissolving in pure water
(§1) Formulation for pharmaceutically active compound: suspension in CMC (carboxymethylcellulose), 0.5%
Animal Grouping and Testing Course:
Each group includes three male rats having a weight of 180 to 210 g. Gavage administration was performed; the blood was collected at point of time: 5 min, 15 min, 30 min, 45 min, 1 h, 2 h, 4 h, 6 h, 10 h and 24 h; about 250 μl blood was collected from orbital venous plexus into a heparin-containing tube, centrifuged, and 100 μl plasma was used for LC-MS analysis.

[4] = tested on: human colon cancer HT-29 xenografts; test: Therapeutic effect on human colon cancer HT-29 xenografts in nude mice; format: in vivo, BALB/cA-nude mice; settings: 40 mg/kg (based on pharmaceutically active compound), gavage for 21 days, L-malate in pure water, active compound as suspension in 0.5% CMC
Description: Laboratory animal: BALB/cA-nude mice, 6-7 weeks, ♀
Dosage: 40 mg/kg (based on pharmaceutically active compound)
Formulation for L-malate: dissolving in pure water
as §1
Nude mice were subcutaneously inoculated with human colon cancer HT-29 cells. After the tumor grew to a size of 150 to 250 mm^3, the animals were randomly divided into three groups (d0). The animals were continuously administered through gavage for 21 days, and the tumor volume was measured 2 to 3 times per week. The tumor volume (V) was calculated according to the equation: V=1/2×a×b^2, where a and b represent length and width respectively.
The relative proliferation of tumor=T/C(%)=(T−T0)/(C−C0)×100, where T and C are the tumor volumes at the end of experiment, T0 and C0 are the tumor volumes at the start of experiment; the tumor inhibition rate=1−T/C(%).

CCN(CC)CCNC(=O)c1c(C)[nH]c2c1CCC/C2=C1/C(=O)Nc2ccc(F)cc21 [Pharmaceutically active compound, (Z)—N-[2-(diethylamino)ethyl]-2-methyl-7-(1,2-dihydro-5-fluoro-2-oxo-3H-indol-3-ylidene)-4,5,6,7-tetrahydro-1H-indol-3-carboxamide]
Hygroscopicity [1]: Almost no hygroscopicity
solubility at 30 min [2]: 20 µg/mL (≈ 47.1 µM)
AUC(0-t) [3]: 128 ng·h/mL
Tumor Inhibition Rate [4]: 40%
